Measured values from ChEMBL document CHEMBL4196098, “Structure-Activity Relationships and Therapeutic Potentials of 5-HT7 Receptor Ligands: An Update” (J Med Chem, 2018).

Tests used:
[1] = target: T1, 5-hydroxytryptamine receptor 7 (Rattus norvegicus, UniProt P32305); assay: Displacement of [3H]lysergide from rat recombinant 5-HT7 receptor expressed in HEK293 cell membranes incubated for 60 mins by radioligand binding assay
[2] = target: T2, 5-hydroxytryptamine receptor 1A (Rattus norvegicus, UniProt P19327); assay: Displacement of [3H]-8-OH-DPAT from 5-HT1A in rat hippocampal membranes incubated for 20 mins by radioligand binding assay; assay type: cell membranes
T2 sequence (P19327 whole entry): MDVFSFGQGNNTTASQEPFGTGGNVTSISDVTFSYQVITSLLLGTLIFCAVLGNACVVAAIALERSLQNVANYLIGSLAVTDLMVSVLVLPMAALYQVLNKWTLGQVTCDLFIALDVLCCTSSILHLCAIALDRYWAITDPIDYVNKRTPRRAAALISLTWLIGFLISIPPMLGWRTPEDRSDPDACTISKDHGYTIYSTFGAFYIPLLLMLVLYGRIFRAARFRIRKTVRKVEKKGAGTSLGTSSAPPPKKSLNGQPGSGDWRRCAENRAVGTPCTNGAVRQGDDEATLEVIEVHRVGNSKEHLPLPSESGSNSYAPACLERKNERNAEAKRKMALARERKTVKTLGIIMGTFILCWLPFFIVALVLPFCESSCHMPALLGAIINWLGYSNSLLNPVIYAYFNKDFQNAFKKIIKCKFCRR

[3] = Intrinsic clearance in human liver microsomes; assay type: ADME, microsome; settings: read-out: CLH
[4] = Ratio of drug level in brain to plasma in mouse at 5 mg/kg, ip; assay type: ADME, organism-based; settings: read-out: BPR
[5] = target: 5-hydroxytryptamine receptor 7 (Homo sapiens, UniProt P34969); assay: Binding affinity to 5-HT7 receptor (unknown origin)
5-hydroxytryptamine receptor 7 (Homo sapiens, UniProt P34969), sequence (P34969 whole entry): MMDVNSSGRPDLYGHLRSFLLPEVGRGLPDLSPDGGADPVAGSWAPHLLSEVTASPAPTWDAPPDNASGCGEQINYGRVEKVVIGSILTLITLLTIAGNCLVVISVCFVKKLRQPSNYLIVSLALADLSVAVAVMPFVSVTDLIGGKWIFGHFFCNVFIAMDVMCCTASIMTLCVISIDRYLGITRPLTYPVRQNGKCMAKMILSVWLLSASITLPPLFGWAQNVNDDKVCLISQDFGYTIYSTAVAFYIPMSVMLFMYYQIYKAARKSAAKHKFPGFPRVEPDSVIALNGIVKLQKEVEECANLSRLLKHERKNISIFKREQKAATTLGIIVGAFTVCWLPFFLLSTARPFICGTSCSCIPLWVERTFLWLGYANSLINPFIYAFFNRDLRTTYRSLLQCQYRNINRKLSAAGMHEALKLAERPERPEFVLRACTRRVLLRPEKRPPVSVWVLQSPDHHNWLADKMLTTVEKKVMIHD

[6] = target: T1, 5-hydroxytryptamine receptor 7; assay: Displacement of [3H]5-CT from rat 5-HT7 receptor expressed in HEK293 cell membranes by radioligand binding assay
[7] = target: 5-hydroxytryptamine receptor 2A (Homo sapiens, UniProt P28223); assay: Binding affinity to 5-HT2A receptor (unknown origin)
5-hydroxytryptamine receptor 2A, sequence (P28223 whole entry): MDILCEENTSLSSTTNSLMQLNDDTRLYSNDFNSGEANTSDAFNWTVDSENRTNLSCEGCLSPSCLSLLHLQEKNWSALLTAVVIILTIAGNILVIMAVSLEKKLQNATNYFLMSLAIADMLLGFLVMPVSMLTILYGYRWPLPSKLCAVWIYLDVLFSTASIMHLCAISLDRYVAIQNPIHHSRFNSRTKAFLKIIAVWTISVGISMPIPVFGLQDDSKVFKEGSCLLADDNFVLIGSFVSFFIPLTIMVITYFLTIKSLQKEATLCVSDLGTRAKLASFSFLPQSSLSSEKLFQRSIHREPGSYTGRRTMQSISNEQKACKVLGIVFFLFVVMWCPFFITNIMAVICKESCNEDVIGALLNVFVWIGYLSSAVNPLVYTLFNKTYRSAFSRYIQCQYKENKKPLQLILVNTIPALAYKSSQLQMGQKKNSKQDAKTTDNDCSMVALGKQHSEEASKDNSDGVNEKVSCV

[8] = target: T3, 5-hydroxytryptamine receptor 2C (Homo sapiens, UniProt P28335); assay: Binding affinity to 5-HT2c receptor (unknown origin)
T3 sequence (P28335 whole entry): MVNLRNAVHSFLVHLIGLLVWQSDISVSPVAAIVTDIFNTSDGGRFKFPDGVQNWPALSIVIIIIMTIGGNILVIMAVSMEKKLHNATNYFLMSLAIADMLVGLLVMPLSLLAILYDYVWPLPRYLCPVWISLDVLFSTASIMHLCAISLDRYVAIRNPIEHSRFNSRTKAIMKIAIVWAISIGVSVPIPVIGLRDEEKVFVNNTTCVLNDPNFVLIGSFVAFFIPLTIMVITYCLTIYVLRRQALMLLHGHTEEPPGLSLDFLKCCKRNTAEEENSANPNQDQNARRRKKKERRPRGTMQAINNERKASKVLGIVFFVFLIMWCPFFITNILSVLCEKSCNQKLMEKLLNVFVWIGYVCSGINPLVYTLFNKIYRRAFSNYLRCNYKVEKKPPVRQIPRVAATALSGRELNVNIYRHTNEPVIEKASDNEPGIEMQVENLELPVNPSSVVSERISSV

[9] = target: T1, 5-hydroxytryptamine receptor 7; assay: Displacement of [3H]-5-CT from 5-HT7 receptor in rat hypothalamus membranes by Cheng-Prusoff equation analysis; assay type: cell membranes, Membrane

T1 sequence (P32305 whole entry): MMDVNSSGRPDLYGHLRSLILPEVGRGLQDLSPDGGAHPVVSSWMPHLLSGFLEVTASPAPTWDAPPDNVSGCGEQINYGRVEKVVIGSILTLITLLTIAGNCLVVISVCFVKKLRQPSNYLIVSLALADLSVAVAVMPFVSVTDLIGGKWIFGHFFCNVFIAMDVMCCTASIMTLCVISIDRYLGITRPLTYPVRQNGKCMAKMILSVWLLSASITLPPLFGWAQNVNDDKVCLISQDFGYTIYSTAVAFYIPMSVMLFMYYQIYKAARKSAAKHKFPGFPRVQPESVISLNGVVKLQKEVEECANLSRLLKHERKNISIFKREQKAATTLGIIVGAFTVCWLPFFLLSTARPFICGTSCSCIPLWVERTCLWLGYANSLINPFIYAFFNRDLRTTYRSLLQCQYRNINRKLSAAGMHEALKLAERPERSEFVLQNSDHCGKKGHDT

For `COc1cccc(CCN2CCN(c3ccccc3OC)CC2)c1`, the Ki [1] was 24.5 nM and the Ki [2] was 2.37 nM.
For `CCn1cncc1-c1c[nH]c2ccc(OC)cc12`, the CLint scaled [3] was 3.69 mL/min/kg and the Kp [4] was 6.34.
In the case of `Cc1nn(C)c(C)c1-c1cccc(CCN(C)C)c1`, the Ki [5] is reported as 2.5 nM.
For `COc1cccc(CCN2CCN(c3ccccc3-c3ccccc3)CC2)c1`, the Ki [1] was 7.5 nM and the Ki [2] was 20 nM.
In the case of `CNC(=O)CN1c2ccccc2C2CCN(CCCCC34CCCc5cccc(c53)NC4=O)CC21` (centres undefined), the Ki [5] is reported as 4 nM.
In the case of `CCn1cncc1-c1c[nH]c2ccc(I)cc12`, the CLint scaled [3] is reported as 6.3 mL/min/kg.
Work on `Cc1nn(C)c(C)c1-c1ccc(O)c(CCN(C)C)c1` yielded a Ki [5] of 0.47 nM.
Molecule `Clc1ccc(-c2nn(Cc3ccccc3)c3c2CCNCC3)cc1` [JNJ-18038683 FREE BASE] has a Ki [6] of 6.5 nM.
Work on `Cc1ccc2c(c1)c1c(n2CCc2ccccc2)CCN(C)C1` [MARITUPIRDINE] yielded a Ki [7] of 1.2 to 2 nM and a Ki [8] of 1.2 to 2 nM.
For `O=C1c2cccc3cccc(c23)N1CCCCCN1CCN(c2ccccc2)CC1` [UCM-5600], the Ki [9] was 89 nM.
